Laboratory results reported in patent publication US20240398784A1, “C-LINKED ISOQUINOLINE AMIDES AS LRRK2 INHIBITORS, PHARMACEUTICAL COMPOSITIONS, AND USES THEREOF” (Merck Sharp & Dohme LLC, priority 2021, published 2024).

Molecular target: LRRK2 G2019S (Homo sapiens, UniProt Q5S007, G2019S)
Test: LRRK2 G2019S Km ATP LanthaScreen assay
Type: biochemical
Settings: for IC50: read-out: LRRK2 pIC50 (converted)
Description: Unless otherwise noted, all reactions are magnetically stirred. Unless otherwise noted, when diethyl ether is used in the experiments described below, it is Fisher ACS certified material and is stabilized with BHT. Unless otherwise noted, “concentrated” and/or “solvent removed under reduced pressure” means evaporating the solvent from a solution or mixture using a rotary evaporator or vacuum pump. Unless otherwise noted, flash chromatography is carried out on a Teledyne Isco (Lincoln, NE), Analogix (Burlington, WI), or Biotage (Stockholm, SWE) automated chromatography system using a commercially available cartridge as the column. Columns may be purchased from Teledyne Isco, Analogix, Biotage, Varian (Palo Alto, CA), or Supelco (Bellefonte, PA) and are usually filled with silica gel as the stationary phase. Reverse phase prep-HPLC conditions, where used, can be found at the end of each experimental section. Aqueous solutions were concentrated on a Genevac (Ipswich, ENG) or by freeze-drying/lyophilization.

Chain of LRRK2 G2019S (Q5S007 whole entry G2019S): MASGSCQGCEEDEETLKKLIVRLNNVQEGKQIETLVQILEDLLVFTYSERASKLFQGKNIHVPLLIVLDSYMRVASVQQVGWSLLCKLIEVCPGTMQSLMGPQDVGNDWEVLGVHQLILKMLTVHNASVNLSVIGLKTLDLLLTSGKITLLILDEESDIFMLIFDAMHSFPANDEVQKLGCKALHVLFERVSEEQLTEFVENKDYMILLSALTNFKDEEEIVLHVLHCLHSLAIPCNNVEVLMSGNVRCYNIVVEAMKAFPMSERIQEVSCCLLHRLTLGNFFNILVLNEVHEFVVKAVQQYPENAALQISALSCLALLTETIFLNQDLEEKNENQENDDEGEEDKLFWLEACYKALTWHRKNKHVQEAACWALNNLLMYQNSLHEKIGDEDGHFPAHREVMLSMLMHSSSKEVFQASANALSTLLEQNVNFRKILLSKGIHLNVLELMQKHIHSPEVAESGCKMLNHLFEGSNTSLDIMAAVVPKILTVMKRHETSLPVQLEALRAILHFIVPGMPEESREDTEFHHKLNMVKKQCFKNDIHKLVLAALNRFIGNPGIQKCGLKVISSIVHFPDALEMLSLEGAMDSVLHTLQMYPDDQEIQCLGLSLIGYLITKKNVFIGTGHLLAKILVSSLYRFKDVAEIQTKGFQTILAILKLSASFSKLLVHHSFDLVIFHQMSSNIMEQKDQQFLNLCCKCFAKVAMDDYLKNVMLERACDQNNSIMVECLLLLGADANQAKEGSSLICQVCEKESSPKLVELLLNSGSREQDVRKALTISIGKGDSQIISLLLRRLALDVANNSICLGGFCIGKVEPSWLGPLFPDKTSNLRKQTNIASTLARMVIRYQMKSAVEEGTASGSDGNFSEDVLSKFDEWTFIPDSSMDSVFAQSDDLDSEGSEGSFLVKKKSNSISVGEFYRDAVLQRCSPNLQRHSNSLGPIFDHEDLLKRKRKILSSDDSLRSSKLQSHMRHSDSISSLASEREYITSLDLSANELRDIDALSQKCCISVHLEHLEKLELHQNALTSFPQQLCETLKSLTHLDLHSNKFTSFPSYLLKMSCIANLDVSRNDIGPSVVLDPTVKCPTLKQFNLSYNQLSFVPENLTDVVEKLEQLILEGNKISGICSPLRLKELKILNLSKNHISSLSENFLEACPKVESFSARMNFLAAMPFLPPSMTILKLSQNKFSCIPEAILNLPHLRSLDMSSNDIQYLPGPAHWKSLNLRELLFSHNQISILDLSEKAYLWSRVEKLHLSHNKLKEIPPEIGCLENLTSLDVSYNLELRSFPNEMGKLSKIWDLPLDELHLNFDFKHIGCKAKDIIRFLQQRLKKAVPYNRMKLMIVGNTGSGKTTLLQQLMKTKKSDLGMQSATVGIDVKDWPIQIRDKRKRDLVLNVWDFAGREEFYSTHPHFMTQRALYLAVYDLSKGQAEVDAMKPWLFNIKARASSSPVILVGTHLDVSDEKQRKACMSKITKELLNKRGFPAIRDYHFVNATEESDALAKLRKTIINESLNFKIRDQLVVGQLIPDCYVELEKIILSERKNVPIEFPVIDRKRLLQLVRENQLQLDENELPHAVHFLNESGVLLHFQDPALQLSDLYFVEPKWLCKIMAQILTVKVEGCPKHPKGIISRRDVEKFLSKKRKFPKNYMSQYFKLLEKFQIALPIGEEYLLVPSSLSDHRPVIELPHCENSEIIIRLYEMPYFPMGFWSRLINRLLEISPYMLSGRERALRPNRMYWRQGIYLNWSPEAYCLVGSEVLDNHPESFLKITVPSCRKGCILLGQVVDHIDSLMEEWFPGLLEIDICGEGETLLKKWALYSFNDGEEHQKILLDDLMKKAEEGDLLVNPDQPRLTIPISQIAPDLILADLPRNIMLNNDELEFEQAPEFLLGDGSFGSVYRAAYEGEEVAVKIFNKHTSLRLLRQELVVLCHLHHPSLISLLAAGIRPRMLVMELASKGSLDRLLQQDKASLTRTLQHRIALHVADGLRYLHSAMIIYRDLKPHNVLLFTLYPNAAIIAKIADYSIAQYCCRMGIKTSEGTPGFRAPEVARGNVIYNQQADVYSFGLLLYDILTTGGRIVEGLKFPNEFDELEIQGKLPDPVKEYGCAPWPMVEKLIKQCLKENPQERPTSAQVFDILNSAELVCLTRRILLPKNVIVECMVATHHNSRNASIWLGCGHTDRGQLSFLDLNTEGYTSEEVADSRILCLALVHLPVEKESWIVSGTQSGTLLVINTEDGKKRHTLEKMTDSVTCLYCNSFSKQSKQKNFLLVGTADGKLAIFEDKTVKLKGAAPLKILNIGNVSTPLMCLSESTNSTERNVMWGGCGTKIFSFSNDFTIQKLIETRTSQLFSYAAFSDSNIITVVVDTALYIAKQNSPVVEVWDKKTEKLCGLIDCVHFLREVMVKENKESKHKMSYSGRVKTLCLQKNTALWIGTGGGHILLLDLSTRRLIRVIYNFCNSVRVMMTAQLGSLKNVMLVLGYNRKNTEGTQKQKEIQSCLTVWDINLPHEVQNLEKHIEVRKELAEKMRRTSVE

CC1(C)CC(C(=O)Nc2cc3cc(C4CCN(C5(C)CCOC5)CC4)c(Cl)cc3cn2)CCO1 (single isomer, unassigned) [Ex-6.47, N-(7-chloro-6-(1-(3-methyltetrahydrofuran-3-yl)piperidin-4-yl)isoquinolin-3-yl)-2,2-dimethyltetrahydro-2H-pyran-4-carboxamide]
IC50: 0.000724 µM

O=C(Nc1cc2cc(C3CCN(C4COCC4O)CC3)c(Cl)cc2cn1)C1CC12CCOCC2 (single isomer, unassigned) [Ex-4.3, N-(7-chloro-6-(1-(4-hydroxytetrahydrofuran-3-yl)piperidin-4-yl)isoquinolin-3-yl)-6-oxaspiro[2.5]octane-1-carboxamide]
IC50: 0.0182 µM

CC1(N2CCC(c3cc4cc(NC(=O)C5CCC(C(F)(F)F)OC5)ncc4cc3Cl)CC2)COCC1O (centres unmarked) [Ex-2.60]
IC50: 0.0479 µM

N#CC1(c2ccc3cnc(NC(=O)C4CC4c4cccnc4)cc3c2)CC12CC2 (centres unmarked) [Ex-2.45]
IC50: 0.0112 µM

CC1(N2CCC(c3cc4cc(NC(=O)C5COC6(CCC6)C5)ncc4cc3Cl)CC2)COCC1O (single isomer, unassigned) [Ex-4.17, N-(7-chloro-6-(1-(4-hydroxy-3-methyltetrahydrofuran-3-yl)piperidin-4-yl)isoquinolin-3-yl)-5-oxaspiro[3.4]octane-7-carboxamide]
IC50: 0.000102 µM

COC1CCC(C(=O)Nc2cc3cc(C4CCN(C5(C)COCC5O)CC4)c(Cl)cc3cn2)CC1 (single isomer, unassigned) [Ex-10.1, 1,4-trans, (3R,4R)- or 1,4-trans, (3S,4S)- or 1,4-cis, (3R,4R)- or 1,4-cis, (3S,4S)-N-(7-chloro-6-(1-(4-hydroxy-3-methyltetrahydrofuran-3-yl)piperidin-4-yl)isoquinolin-3-yl)-4-methoxycyclohexane-1-carboxamide]
IC50: 0.0105 µM

N#CC1(c2ccc3cnc(NC(=O)C4CC4)cc3c2)CC12CC2 (single isomer, unassigned) [Ex-18.2, N-(6-(1-cyanospiro[2.2]pentan-1-yl)isoquinolin-3-yl)cyclopropanecarboxamide]
IC50: 0.00363 µM

N#CC1(c2ccc3cnc(NC(=O)C4CC(OC(F)F)C4)cc3c2)CC12CC2 (single isomer, unassigned) [Ex-2.7]
IC50: 0.0105 µM

CC1(N2CCC(c3cc4cc(NC(=O)Cc5ccccn5)ncc4cc3Cl)CC2)COCC1O (centres unmarked) [Ex-3.6]
IC50: 0.00024 µM

O=C(Nc1cc2cc(C3CCN(C4COCC4O)CC3)c(Cl)cc2cn1)C1CC1 (single isomer, unassigned) [Ex-12.4, N-(7-chloro-6-(1-(4-hydroxytetrahydrofuran-3-yl)piperidin-4-yl)isoquinolin-3-yl)cyclopropanecarboxamide]
IC50: 0.0661 µM

CC1(N2CCC(c3cc4cc(NC(=O)C5CC56CCOC6)ncc4cc3Cl)CC2)COCC1F (single isomer, unassigned) [Ex-6.7, (R or S)-N-(7-chloro-6-(1-((3R,4R or 3S,4S)-4-fluoro-3-methyltetrahydrofuran-3-yl)piperidin-4-yl)isoquinolin-3-yl)-5-oxaspiro [2.4] heptane-1-carboxamide]
IC50: 0.00182 µM

CCC1C(C(=O)Nc2cc3cc(C(C)CC#N)c(Cl)cc3cn2)C1c1cnn(C)c1 (single isomer, unassigned) [Ex-9.15, N-(7-chloro-6-(1-cyanopropan-2-yl)isoquinolin-3-yl)-2-ethyl-3-(1-methyl-1H-pyrazol-4-yl)cyclopropane-1-carboxamide]
IC50: 0.000427 µM

Cc1cc2cnc(NC(=O)C3CC3C(F)F)cc2cc1C1CCN(C2(C)COCC2O)CC1 (centres unmarked) [Ex-2.53]
IC50: 0.000813 µM

CC1(N2CCC(c3cc4cc(NC(=O)C5CC5)ncc4cc3Cl)C(F)C2)COC1 (centres unmarked) [Ex-14.3, N-(7-chloro-6-(3-fluoro-1-(3-methyloxetan-3-yl)piperidin-4-yl)isoquinolin-3-yl)cyclopropanecarboxamide]
IC50: 0.000589 µM

Cc1cc2cnc(NC(=O)C3CC3C(F)F)cc2cc1C1CCN(C2(C)COCC2O)CC1 (centres unmarked) [Ex-2.55]
IC50: 0.00398 µM

CC1COCC1(C)N1CCC(c2cc3cc(NC(=O)C4CC45CCOCC5)ncc3cc2Cl)CC1 (single isomer, unassigned) [Ex-6.10, N-(7-chloro-6-(1-(3,4-dimethyltetrahydrofuran-3-yl)piperidin-4-yl)isoquinolin-3-yl)-6-oxaspiro[2.5]octane-1-carboxamide]
IC50: 0.11 µM

Cn1cc(N2CCC(C(=O)Nc3cc4cc(C5(C#N)CC56CC6)ccc4cn3)C2)cn1 (centres unmarked) [Ex-2.77]
IC50: 0.0102 µM

CC1(N2CCC(c3cc4cc(NC(=O)[C@H]5CCCO5)ncc4cc3Cl)CC2)COCC1O (some centres unmarked) [Ex-3.2]
IC50: 0.00115 µM

Cn1ncc(C2CC2C(=O)Nc2cc3cc(C4CCN(C5(C)COCC5O)CC4)c(Cl)cc3cn2)n1 [Ex-20.1, (1R,2R and 1S,2S)-N-(7-chloro-6-(1-(4-hydroxy-3-methyltetrahydrofuran-3-yl)piperidin-4-yl)isoquinolin-3-yl)-2-(2-methyl-2H-1,2,3-triazol-4-yl)cyclopropane-1-carboxamide]
LRRK2 pIC50: 10.09

CC1(N2CCC(c3cc4cc(NC(=O)C5CC5c5ccccn5)ncc4cc3Cl)CC2)CCOC1 (single isomer, unassigned) [Ex-6.35, N-(7-chloro-6-(1-(3-methyltetrahydrofuran-3-yl)piperidin-4-yl)isoquinolin-3-yl)-2-(pyridin-2-yl)cyclopropane-1-carboxamide]
IC50: 0.00661 µM

O=C(Nc1cc2cc(C3CCN(C4COC4)CC3)c(Cl)cc2cn1)[C@@H]1C[C@@H](O)[C@H](F)C1 [Ex-1.12, (1R,3R,4R)-N-(7-chloro-6-(1-(oxetan-3-yl)piperidin-4-yl)isoquinolin-3-yl)-3-fluoro-4-hydroxycyclopentane-1-carboxamide]
IC50: 0.00933 µM

CC(C)Cn1nccc1C1CC1C(=O)Nc1cc2cc(C3CCN(C4(C)COCC4O)CC3)c(Cl)cc2cn1 (single isomer, unassigned) [Ex-4.62, N-(7-chloro-6-(1-(4-hydroxy-3-methyltetrahydrofuran-3-yl)piperidin-4-yl)isoquinolin-3-yl)-2-(1-isobutyl-1H-pyrazol-5-yl)cyclopropane-1-carboxamide]
IC50: 81300 µM

CCC1C(C(=O)Nc2cc3cc(C(C)COC)c(Cl)cc3cn2)C1c1cnn(C)c1 (single isomer, unassigned) [Ex-9.14, N-(7-chloro-6-(1-methoxypropan-2-yl)isoquinolin-3-yl)-2-ethyl-3-(1-methyl-1H-pyrazol-4-yl)cyclopropane-1-carboxamide]
IC50: 0.00117 µM

CC1(N2CCC(c3cc4cc(NC(=O)C5CC5C(F)F)ncc4cc3Cl)CC2)COCC1O (single isomer, unassigned) [Ex-10.9, N-(7-chloro-6-(1-(4-hydroxy-3-methyltetrahydrofuran-3-yl)piperidin-4-yl)isoquinolin-3-yl)-2-(difluoromethyl)cyclopropane-1-carboxamide]
IC50: 0.00724 µM

Cc1cc2cnc(NC(=O)C3CC34CCOC4)cc2cc1C1CCN(C2(C)COCC2F)CC1 (single isomer, unassigned) [Ex-15.8, N-(6-(1-(4-fluoro-3-methyltetrahydrofuran-3-yl)piperidin-4-yl)-7-methylisoquinolin-3-yl)-5-oxaspiro[2.4]heptane-1-carboxamide]
IC50: 0.219 µM

N#CC1(c2ccc3cnc(NC(=O)C4CC4c4ccccn4)cc3c2)CC12CC2 (centres unmarked) [Ex-2.40]
IC50: 0.000575 µM

Cc1cc2cnc(NC(=O)C3CC34CCOC4)cc2cc1C1CCN(C2(C)COCC2F)CC1 (single isomer, unassigned) [Ex-15.10, N-(6-(1-(4-fluoro-3-methyltetrahydrofuran-3-yl)piperidin-4-yl)-7-methylisoquinolin-3-yl)-5-oxaspiro[2.4]heptane-1-carboxamide]
IC50: 0.002 µM

CC1(N2CCC(c3cc4cc(NC(=O)C5CC5C(F)F)ncc4cc3Cl)CC2)COCC1O (single isomer, unassigned) [Ex-4.44, N-(7-chloro-6-(1-(4-hydroxy-3-methyltetrahydrofuran-3-yl)piperidin-4-yl)isoquinolin-3-yl)-2-(difluoromethyl)cyclopropane-1-carboxamide]
IC50: 0.000562 µM

Cn1cc(N2CCC(C(=O)Nc3cc4cc(C5(C#N)CC56CC6)ccc4cn3)C2)cn1 (centres unmarked) [Ex-2.76]
IC50: 0.0263 µM

CC(C)(O)C1CC1C(=O)Nc1cc2cc(C3CCN(C4(C)CCOC4)CC3)c(Cl)cc2cn1 (single isomer, unassigned) [Ex-6.14, N-(7-chloro-6-(1-(3-methyltetrahydrofuran-3-yl)piperidin-4-yl)isoquinolin-3-yl)-2-(2-hydroxypropan-2-yl)cyclopropane-1-carboxamide]
IC50: 0.00269 µM

CC1(C)CCC(C(=O)Nc2cc3cc(C4CCC(N5CCC(F)C5)CC4)c(Cl)cc3cn2)CO1 (single isomer, unassigned) [Ex-5.18, N-(7-chloro-6-(4-(3-fluoropyrrolidin-1-yl)cyclohexyl)isoquinolin-3-yl)-6,6-dimethyltetrahydro-2H-pyran-3-carboxamide]
IC50: 1.02 µM

CC1CC1C(=O)Nc1cc2cc(C3CCN(C4COC4)CC3)c(Cl)cc2cn1 (single isomer, unassigned) [Ex-9.3, N-(7-chloro-6-(1-(oxetan-3-yl)piperidin-4-yl)isoquinolin-3-yl)-2-methylcyclopropane-1-carboxamide]
IC50: 0.000631 µM

CC1(C)CC(C(=O)Nc2cc3cc(C4CCN(C5(C)COCC5O)CC4)c(Cl)cc3cn2)CCO1 (centres unmarked) [Ex-2.34]
IC50: 0.0017 µM

CC1(N2CCC(c3cc4cc(NC(=O)C5(Cn6ccnc6)CC5)ncc4cc3Cl)CC2)COCC1O (centres unmarked) [Ex-3.3]
IC50: 0.00331 µM

CC1(N2CCC(c3cc4cc(NC(=O)C56CC(C5)C6)ncc4cc3Cl)CC2)COC1 [Ex-7.7, N-(7-chloro-6-(1-(3-methyloxetan-3-yl)piperidin-4-yl)isoquinolin-3-yl)bicyclo[1.1.1]pentane-1-carboxamide]
IC50: 0.00912 µM
